Values after ≈ are worked out from the molar mass of the structure shown.

As usually defined, the solubility is the dissolved amount per volume that the medium holds.

Series [1] relates to Trypanosoma cruzi. In words: Assay 2 Trypanosoma cruzi intracellular assay (infected Vero cells). The class given is cell-based. The conditions noted are these: 72 h, read-out: pEC50 value against Trypanosoma cruzi (converted). The protocol: Compounds were dispensed into black 384-well assay plates (Corning) by acoustic dispensing (LabCyte ECHO). For potency determinations, ten-point one in three dilution curves were generated, with a top concentration of 50 μM. Vero cells were infected overnight with T. cruzi trypomastigotes in T225 tissue culture flasks at a multiplicity of infection of 5. Next, any remaining free trypomastigotes were washed away with serum free MEM media and the infected Vero cells were harvested by trypsinisation. The infected Vero cells were then plated into 384-well plates containing the compounds to be tested, at 4000 cells per well in MEM media with 1% FCS. After 72 h incubation at 37° C. in presence of 5% CO2, the plates were fixed with 4% formaldehyde for 20 minutes at room temperature and stained with 5 μg/ml Hoechst 33342. The plates were imaged on a Perkin Elmer Operetta high-content imaging system using a 20× objective. Images were analysed using the Columbus system (Perkin Elmer). The image analysis algorithm first identified the Vero nuclei followed by demarcation of the cytoplasm and identification of intracellular amastigotes. This algorithm reported mean number of parasites per Vero cell and total number of Vero cells.

The test system of another series is Trypanosoma brucei. In words: Assay 3 Trypanosoma brucei cell growth inhibition assay. In kind it is cell-based. The following applies: T. b. brucei BSF427, 69 h + 4 h resazurin, maximum threshold 8.0, read-out: pEC50 value against Trypanosoma brucei (converted). The protocol:
Measurement of the ability of the compounds to inhibit trypanosome (T. b. brucei, BSF427, VSG118) cell growth was performed using a modification of the cell viability assay previously described by Raz et al. (Raz B.; Iten M.; Grether-Buhler Y.; Kaminski R.; Brun R. The Alamar Blue assay to determine drug sensitivity of African trypanosomes (T. b. rhodesiense and T. b. gambiense) in vitro. Acta Trop. 1997, 68, 139-147). Compounds were dissolved in DMSO at a top concentration of 10 mM and serially diluted in half log steps to achieve a range of final assay concentrations of 50 μM to 0.5 nM. Compound at each concentration (200-fold final) was added to clear 96-well tissue culture plates in a volume of 1 μL. Then 2000 cells per well in relevant growth medium (HMI-9T for T. brucei, a modification of HMI-9 as described by Hurumi et al. (Hirumi H.; Hirumi K. Continuous cultivation of Trypanosoma brucei blood stream forms in a medium containing a low concentration of serum-protein without feeder cell-layers. J. Parasitol. 1989, 75, 985-989.) where 0.2 mM 2-mercaptoethanol was replaced with 0.056 mM thiolglycerol, and MEM with 10% FBS for MRC5) were then added to columns 1-11 of the plates in a volume of 199 μL. To column 12, 200 μL of medium was added to provide a no cells control. Plates were then incubated at 37° C. in an atmosphere of 5% CO2 for 69 h, before the addition of 20 μL of 500 μM rezasurin solution, and a further incubation period of 4 h. Plates were then read on a BioTek flx800 fluorescent plate reader, and percentage inhibition was compared to the maximum and minimum assay controls. Concentration effect curves were fitted using nonlinear regression using XLFit 4.2 and EC50 values determined.

The test system of series [2] is Trypanosoma cruzi. In words: Assay 6 Trypanosoma cruzi intracellular assay (infected H9C2 cells). In kind it is cell-based. The conditions noted are these: H9c2, in Rattus norvegicus, 72 h, infected H9C2 rat cardiomyocytes, read-out: pEC50 value against Trypanosoma cruzi (converted). The gist of the method:
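Infected H9C2 rat cardiomyocytes (T. cruzi trypomastigotes, MOI 1, 18 h) plated at 2500 cells/well on compound, 11-point 1:3 curves from 50 μM top, 72 h at 37 °C in 2% FBS DMEM. Fixed, Draq5-stained, high-content imaged; algorithm counts parasites per cell, % infected cells and total host cells (cytotoxicity).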

The next series has as its system Leishmania donovani. In words: Assay 1 intramacrophage Leishmania donovani assay (potency readout). The class given is cell-based. The conditions noted are these: amastigotes in PMA-treated THP-1 macrophages, 96 h, average number of amastigotes per cell, minimum threshold 4.3, read-out: pEC50 value against Leishmania donovani (converted). As for the experimental part:
(§1) The intramacrophage Leishmania assay was performed using a modified version of the method described in De Rycker et al. (Antimicrob Agents Chemother. 2013 July; 57(7):2913-22. Comparison of a high-throughput high-content intracellular Leishmania donovani assay with an axenic amastigote assay. De Rycker M, Hallyburton I, Thomas J, Campbell L, Wyllie S, Joshi D, Cameron S, Gilbert I H, Wyatt P G, Frearson J A, Fairlamb A H, Gray D W.). Procedure: 350 nl of compound was pre-dispensed into 384 well sterile intermediary plates. For single point screening, amphotericin B was added to all wells of column 24 as a positive control (final concentration 2 μM) and DMSO to column 23. For potency determinations, ten-point, one in three dilution curves were created with the highest concentration being 50 μM and on each plate a control curve of amphotericin B was included. Controls were as follows: columns 11 and 12: DMSO, columns 23 and 24: amphotericin B (final concentration 2 μM). To the intermediary plates, 35 μl of THP-1 media was added and plates were shaken for >5 min to ensure complete mixing. THP-1 cells (8,000 per well, 50 μl) were plated into black clear-bottom 384 well plates (Corning) in presence of 20 nM PMA. After 20 min at RT, the plates were incubated at 37° C. under 5% CO2 in a humidified incubator for 75 h. The cells were then washed with […] sterile phosphate buffered saline (PBS) supplemented with 1 mM CaCl2, 0.5 mM MgCl2, 0.1% (w/v) bovine serum albumin (PBS-A) and amastigotes were added to all wells at a multiplicity of infection of 5 (40,000 amastigotes per well). After 40 min at RT, plates were returned to the incubator. Amastigotes were incubated in the presence of THP-1 macrophages for 16 h. Any remaining extracellular amastigotes were subsequently removed with an overflow wash of 1 mL PBS-A per well (wash buffer is being aspirated from the top of the well as it is being dispensed) followed by addition of 25 μl of the compound pre-dilutions using a Fluidx Ipette-pro pipetting station. The final dilution of each compound was 200-fold. Plates were incubated for 96 h and then washed (250 μl PBS-A) and fixed (4% (v/v) formaldehyde-PBS, 30 min, RT). After fixation, the wells were washed with 250 μl PBS, stained (10 μg/mL DAPI, 0.4 μg mL-1 HCS Cellmask Deep Red in PBS+0.1% (v/v) Triton X-100, 30 min, RT) and washed with 250 μl PBS. Finally, PBS+0.05% (v/v) thimerosal was added to the wells, the plates were sealed and imaged on a high-content microscope (GE IN Cell 2000) using a 10× objective. Image analysis was carried out with GE IN Cell Analyzer 1000 Workstation using the “Multi Target Analysis” module. Settings for segmentation were as follows: nuclei: minimum area: 142.384 μm2, sensitivity: 81, method: top-hat; cells: characteristic area: 2500 μm2, sensitivity: 60, method: multiscale top-hat; organelles (amastigotes): granule size 1-3, 3 scales, sensitivity: 90, detection in entire cell. For each well, i) THP-1 cell count (cytotoxicity readout) and ii) average number of amastigotes per cell (potency readout) were calculated, both in terms of pEC50 values.

The nature of series [3]: Assay 4 solubility assay, ChemiLuminescent Nitrogen Detection (CLND). The conditions noted are these: phosphate buffered saline, pH 7.4, aqueous buffer, kinetic from dmso stock, pH 7.4 PBS, from 10 mM DMSO stock, 1 h at room temperature. In kind it is physicochemical. The gist of the method: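 Kinetic solubility: 10 mM DMSO stock diluted 5 µl into 100 µl pH 7.4 PBS, incubated 1 h at room temperature, then filtered. Filtrate quantified by HPLC with chemiluminescent nitrogen detection against ondansetron and caffeine standards; solubility in µM by linear-regression calibration.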

Series [4] in a line: Assay 6 Trypanosoma cruzi intracellular assay, cytotoxicity against H9c2 cells. In kind it is cell-based. The following applies: rat, H9C2 cardiomyocytes infected with T. cruzi trypomastigotes, total number of H9C2 cells, minimum threshold 4.3, read-out: cytotoxicity against H9c2 cells, pEC50 (converted). As for the experimental part: Compounds were dispensed into black 384-well assay plates (Greiner) by acoustic dispensing (LabCyte ECHO). For potency determinations, eleven-point, one in three dilution curves were generated, with a top concentration of 50 μM. H9C2 rat cardiomyocytes cells were dispensed in T225 tissue culture flasks and after 4 hours they were infected during 18 hours with T. cruzi trypomastigotes in the same T225 tissue culture flasks at a multiplicity of infection of 1. Next, any remaining free trypomastigotes were washed away with PBS and the infected H9C2 cells were harvested by trypsinisation. The infected H9C2 cells were then plated into 384-well plates containing the compounds to be tested, at 2500 cells per well in DMEM media with 2% FBS, 1% Penicillin/Streptomocin, 2 mM L-Glutamine, 1 mM Na Pyruvate and 25 mM HEPES. After 72 h incubation at 37° C. in presence of 5% CO2, the plates were fixed and stained with 4% formaldehyde and 2 μM Draq5 for 3 hours at room temperature. The plates were imaged on a Perkin Elmer Opera high-content imaging system using a 20× air objective. Images were analysed using the Acapella building blocks system (Perkin Elmer). The image analysis algorithm first identified the H9C2 nuclei followed by demarcation of the cytoplasm and identification of intracellular amastigotes. This algorithm reported mean number of parasites per H9C2 cell, the percentage of infected H9C2 cells and the total number of H9C2 cells.

Series [5] in a line: Assay 1 intramacrophage Leishmania donovani assay, THP-1 cell count (cytotoxicity readout). The class given is cell-based. The conditions noted are these: human, minimum threshold 4.3, read-out: cytotoxicity against THP-1 cells, pEC50 value (converted). As for the experimental part:
as §1

A short description of series [6]: Assay 5 Leishmania donovani intracellular assay, cytotoxicity against THP-1 cells. In kind it is cell-based. The conditions noted are these: human, total number of THP-1 cells, minimum threshold 4.3, read-out: cytotoxicity against THP-1 cells, pEC50 value (converted). As for the experimental part:
Compounds were dispensed into black 384-well assay plates (Greiner) by acoustic dispensing (LabCyte ECHO). For potency determinations, eleven-point, one in three dilution curves were generated, with a top concentration of 50 μM. THP-1 human monocytes cells were dispensed in T225 tissue culture flasks and differentiated using 30 nM of PMA, after 24 hours they were infected overnight using Leishmania donovani expressing Green Fluorescent Protein (eGFP) amastigotes in the same T225 tissue culture flasks at a multiplicity of infection of 10. Next, any remaining free amastigotes were washed away with PBS and the infected THP-1 cells were harvested by trypsinisation. The infected cells were then plated into 384-well plates containing the compounds to be tested, at 3000 cells per well in RPMI media with 2% FBS and 25 mM Sodium bicarbonate. After 96 h incubation at 37° C. in presence of 5% CO2, the plates were fixed with 4% formaldehyde for 30 minutes, washed with PBS and stained with 0.1 mg/mL of DAPI for 30 minutes and washed again with PBS. The plates were imaged on a Perkin Elmer Opera high-content imaging system using a 20× air objective with two expositions, one for DAPI stain and other for eGFP. Images were analysed using the Acapella building blocks system (Perkin Elmer). The image analysis algorithm first identified the THP-1 nuclei followed by demarcation of the cytoplasm and identification of intracellular amastigotes. This algorithm reported mean number of parasites per THP-1 cell, the percentage of infected THP-1 cells and the total number of THP-1 cells.

With `O=S(=O)(Nc1ccc(F)c(-c2cn3nc(N4CCOCC4)cnc3n2)c1)N1CCCC1` [Example 10, N-(4-fluoro-3-(2-morpholinoimidazo[1,2-b][1,2,4]triazin-6-yl)phenyl)pyrrolidine-1-sulfonamide], the results for the EC50 in the series with Trypanosoma cruzi [1], in the series with Trypanosoma brucei and with Trypanosoma cruzi [2] were 20 µM, ≥ 20 µM and 10 to 39.8 µM, respectively.

On to `CN(C)c1ccc(-c2cnc3nc(-c4cc(NC(=O)N5CCCC5)ccc4F)cn3n2)cn1` [Example 16, N-(3-(2-(6-(dimethyl-amino)pyridin-3-yl)imidazo[1,2-b][1,2,4]triazin-6-yl)-4-fluorophenyl)pyrrolidine-1-carboxamide], for which the EC50 was > 50.1 µM in the series with Leishmania donovani, ≥ 20 µM with Trypanosoma brucei and 0.00501 to 0.631 µM in the series on Trypanosoma cruzi [2]. Besides, the solubility at 1 h in series [3] was 1 to 6 µM (≈ 0.446 to 2.68 µg/mL).

For the compound `CN(C)S(=O)(=O)Nc1ccc(F)c(-c2cn3nc(N4CCOCC4)cnc3n2)c1` [Example 32, N-(4-fluoro-3-(2-morpholinoimidazo [1,2-b][1,2,4]triazin-6-yl)phenyl)-N′-dimethylsulfamide], the EC50 in the series with Leishmania donovani is > 50.1 µM; in the series on Trypanosoma brucei, ≥ 20 µM; in the series on Trypanosoma cruzi [2], 10 to 39.8 µM.

On to `O=S(=O)(Nc1ccc(F)c(-c2cn3nc(N4CCOCC4)cnc3n2)c1)C1CCCC1` [Example 33, N-(4-fluoro-3-(2-morpholinoimidazo [1,2-b][1,2,4]triazin-6-yl)phenyl)cyclo-pentanesulfonamide], for which the EC50 was > 50.1 µM in the series with Leishmania donovani and 10 to 39.8 µM in the series on Trypanosoma cruzi [2]. Further, the EC50 at 72 h in series [4] is 0.794 to 3.16 µM.

Take `CNCc1ccc(-c2cnc3nc(-c4cc(NC(=O)N5CCCC5)ccc4F)cn3n2)cc1` [Example 38, N-(4-fluoro-3-(2-(4-((methylamino)methyl)phenyl)imidazo[1,2-b] [1,2,4]triazin-6-yl)phenyl)pyrrolidine-1-carboxamide]: the EC50 at 96 h in series [5] is 3.98 to 15.8 µM; in series [6], 2.51 to 10 µM. For the same compound, the solubility at 1 h in series [3] lay in the range of 10 to 83 µM (≈ 4.46 to 37 µg/mL). For the same compound, in the series on Trypanosoma cruzi [2], the EC50 was 0.00501 to 0.631 µM. In addition, in series [4], the EC50 at 72 h is 0.794 to 3.16 µM.

Take `O=C(Nc1ccc(F)c(-c2cn3nc(-c4ccc(CCN5CCOCC5)cc4)cnc3n2)c1)N1CCCC1` [Example 39, N-(4-fluoro-3-(2-(4-(2-morpholinoethyl)phenyl)imidazo[1,2-b][1,2,4]triazin-6-yl)phenyl) pyrrolidine-1-carboxamide]: the EC50 with Leishmania donovani is > 50.1 µM; with Trypanosoma brucei it was ≥ 20 µM; with Trypanosoma cruzi [2] it was 0.00501 to 0.631 µM.

For the compound `Cc1noc(C)c1S(=O)(=O)Nc1ccc(F)c(-c2cn3nc(N4CCOCC4)cnc3n2)c1` [Example 53, N-(4-fluoro-3-(2-morpholinoimidazo[1,2-b] [1,2,4]triazin-6-yl)phenyl)-3,5-dimethyl-isoxazole-4-sulfonamide], the EC50 with Leishmania donovani was > 50.1 µM; in the series on Trypanosoma brucei, ≥ 20 µM; in the series with Trypanosoma cruzi [2], 10 to 39.8 µM.

The record behind these values is patent US10065965B2, “Imidazo[1,2-B][1,2,4]triazine derivatives as antiparasitic agents” (GlaxoSmithKline Intellectual Property Development Limited, priority 2015, dated 2018).
